In PubChem BioAssay (NCI):
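Five concentrations, 48 hours, 96-well plates. At the GI50, growth is halved. TGI denotes the concentration required for complete inhibition of growth.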

Key:
Test in all cases: inhibition of tumour cell growth, NCI panel, 48 h
786-0 renal = tested on: 786-0 renal
A498 renal = tested on: A498 renal
A549 NSCLC = tested on: A549 NSCLC
ACHN renal = tested on: ACHN renal
BT-549 breast = tested on: BT-549 breast
CAKI-1 renal = tested on: CAKI-1 renal
CCRF-CEM leukemia = tested on: CCRF-CEM leukemia
COLO 205 colon = tested on: COLO 205 colon
DU-145 prostate = tested on: DU-145 prostate
HCC-2998 colon = tested on: HCC-2998 colon
HCT-116 colon = tested on: HCT-116 colon
HCT-15 colon = tested on: HCT-15 colon
HL-60(TB) leukemia = tested on: HL-60(TB) leukemia
HOP-62 NSCLC = tested on: HOP-62 NSCLC
HOP-92 NSCLC = tested on: HOP-92 NSCLC
HS 578T breast = tested on: HS 578T breast
HT29 colon = tested on: HT29 colon
IGROV1 ovarian = tested on: IGROV1 ovarian
K-562 leukemia = tested on: K-562 leukemia
KM12 colon = tested on: KM12 colon
M14 melanoma = tested on: M14 melanoma
MALME-3M melanoma = tested on: MALME-3M melanoma
MCF7 breast = tested on: MCF7 breast
MDA-MB-231 breast = tested on: MDA-MB-231 breast
MDA-MB-435 = tested on: MDA-MB-435
MOLT-4 leukemia = tested on: MOLT-4 leukemia
NCI-H226 lung = tested on: NCI-H226 lung
NCI-H23 lung = tested on: NCI-H23 lung
NCI-H460 lung = tested on: NCI-H460 lung
NCI-H522 lung = tested on: NCI-H522 lung
NCI/ADR-RES ovarian = tested on: NCI/ADR-RES ovarian
OVCAR-3 ovarian = tested on: OVCAR-3 ovarian
OVCAR-4 ovarian = tested on: OVCAR-4 ovarian
OVCAR-5 ovarian = tested on: OVCAR-5 ovarian
OVCAR-8 ovarian = tested on: OVCAR-8 ovarian
PC-3 prostate = tested on: PC-3 prostate
RPMI-8226 leukemia = tested on: RPMI-8226 leukemia
RXF 393 renal = tested on: RXF 393 renal
SF-268 CNS = tested on: SF-268 CNS
SF-295 CNS = tested on: SF-295 CNS
SF-539 CNS = tested on: SF-539 CNS
SK-MEL-2 melanoma = tested on: SK-MEL-2 melanoma
SK-MEL-28 melanoma = tested on: SK-MEL-28 melanoma
SK-MEL-5 melanoma = tested on: SK-MEL-5 melanoma
SK-OV-3 ovarian = tested on: SK-OV-3 ovarian
SNB-19 CNS = tested on: SNB-19 CNS
SNB-75 CNS = tested on: SNB-75 CNS
SW-620 colon = tested on: SW-620 colon
T-47D breast = tested on: T-47D breast
TK-10 renal = tested on: TK-10 renal
U251 CNS = tested on: U251 CNS
UACC-257 melanoma = tested on: UACC-257 melanoma
UACC-62 melanoma = tested on: UACC-62 melanoma
UO-31 renal = tested on: UO-31 renal
EKVX NSCLC = tested on: EKVX NSCLC
LOX IMVI melanoma = tested on: LOX IMVI melanoma
SN12C renal = tested on: SN12C renal
SR leukemia = tested on: SR leukemia

## COc1cc2c3c(n(CCCI)c(=O)c2cc1OC)-c1cc2c(cc1C3=O)OCO2
786-0 renal
  GI50: 1.37 µM
  TGI: > 100 µM
A498 renal
  GI50: 6.79 µM
  TGI: > 100 µM
A549 NSCLC
  GI50: 2.5 µM
  TGI: > 100 µM
ACHN renal
  GI50: 2.14 µM
  TGI: 8.34 µM
BT-549 breast
  GI50: 1.82 µM
  TGI: 9.44 µM
CAKI-1 renal
  GI50: 0.454 µM
  TGI: > 100 µM
CCRF-CEM leukemia
  GI50: 0.873 µM
  TGI: > 100 µM
COLO 205 colon
  GI50: 9.17 µM
  TGI: > 100 µM
DU-145 prostate
  GI50: 2.28 µM
  TGI: > 100 µM
HCC-2998 colon
  GI50: 5.61 µM
  TGI: > 100 µM
HCT-116 colon
  GI50: 2.6 µM
  TGI: > 100 µM
HCT-15 colon
  GI50: 0.475 µM
  TGI: > 100 µM
HL-60(TB) leukemia
  GI50: 1.08 µM
  TGI: > 100 µM
HOP-62 NSCLC
  GI50: 4.45 µM
  TGI: > 100 µM
HOP-92 NSCLC
  GI50: > 100 µM
  TGI: > 100 µM
HS 578T breast
  GI50: > 100 µM
  TGI: > 100 µM
HT29 colon
  GI50: 5.46 µM
  TGI: > 100 µM
IGROV1 ovarian
  GI50: 5.24 µM
  TGI: > 100 µM
K-562 leukemia
  GI50: 2.27 µM
  TGI: > 100 µM
KM12 colon
  GI50: 7.4 µM
  TGI: > 100 µM
M14 melanoma
  GI50: 3.05 µM
  TGI: > 100 µM
MALME-3M melanoma
  GI50: 7.57 µM
  TGI: 54.6 µM
MCF7 breast
  GI50: 0.404 µM
  TGI: 6.01 µM
MDA-MB-231 breast
  GI50: 18.7 µM
  TGI: > 100 µM
MDA-MB-435
  GI50: 6.06 µM
  TGI: > 100 µM
MOLT-4 leukemia
  GI50: 0.126 µM
  TGI: > 100 µM
NCI-H226 lung
  GI50: 2.05 µM
  TGI: 7.88 µM
NCI-H23 lung
  GI50: 7.24 µM
  TGI: > 100 µM
NCI-H460 lung
  GI50: 0.272 µM
  TGI: > 100 µM
NCI-H522 lung
  GI50: 8.32 µM
  TGI: > 100 µM
NCI/ADR-RES ovarian
  GI50: 27.3 µM
  TGI: > 100 µM
OVCAR-3 ovarian
  GI50: 11.2 µM
  TGI: > 100 µM
OVCAR-4 ovarian
  GI50: 17.2 µM
  TGI: > 100 µM
OVCAR-5 ovarian
  GI50: > 100 µM
  TGI: > 100 µM
OVCAR-8 ovarian
  GI50: 3.16 µM
  TGI: 81.8 µM
PC-3 prostate
  GI50: > 100 µM
  TGI: > 100 µM
RPMI-8226 leukemia
  GI50: 3.76 µM
  TGI: > 100 µM
RXF 393 renal
  GI50: 6.81 µM
  TGI: > 100 µM
SF-268 CNS
  GI50: 1.34 µM
  TGI: > 100 µM
SF-295 CNS
  GI50: 0.776 µM
  TGI: > 100 µM
SF-539 CNS
  GI50: 4.04 µM
  TGI: > 100 µM
SK-MEL-2 melanoma
  GI50: > 100 µM
  TGI: > 100 µM
SK-MEL-28 melanoma
  GI50: 52.1 µM
  TGI: > 100 µM
SK-MEL-5 melanoma
  GI50: 1.81 µM
  TGI: 8.5 µM
SK-OV-3 ovarian
  GI50: > 100 µM
  TGI: > 100 µM
SNB-19 CNS
  GI50: > 100 µM
  TGI: > 100 µM
SNB-75 CNS
  GI50: > 100 µM
  TGI: > 100 µM
SW-620 colon
  GI50: 3.17 µM
  TGI: > 100 µM
T-47D breast
  GI50: > 100 µM
  TGI: > 100 µM
TK-10 renal
  GI50: 14.7 µM
  TGI: 57 µM
U251 CNS
  GI50: 1.21 µM
  TGI: 17.5 µM
UACC-257 melanoma
  GI50: 3.77 µM
  TGI: 49.4 µM
UACC-62 melanoma
  GI50: 0.202 µM
  TGI: 1.91 µM
UO-31 renal
  GI50: 2.53 µM
  TGI: > 100 µM

## COc1cc2c(cc1C)NC(=O)/C2=C\c1cccc(Oc2ccccc2)c1
786-0 renal
  GI50: 13.2 µM
  TGI: 25.9 µM
A498 renal
  GI50: 10.5 µM
  TGI: 22.5 µM
A549 NSCLC
  GI50: 20.6 µM
  TGI: > 100 µM
ACHN renal
  GI50: 17.3 µM
  TGI: 31 µM
BT-549 breast
  GI50: 12.8 µM
  TGI: 27.9 µM
CAKI-1 renal
  GI50: 19.4 µM
  TGI: 41.2 µM
CCRF-CEM leukemia
  GI50: 6.85 µM
  TGI: 24.5 µM
COLO 205 colon
  GI50: 16.6 µM
  TGI: 33.5 µM
DU-145 prostate
  GI50: 13.5 µM
  TGI: 27 µM
EKVX NSCLC
  GI50: 15.4 µM
  TGI: 41.7 µM
HCC-2998 colon
  GI50: 11.6 µM
  TGI: 24.4 µM
HCT-116 colon
  GI50: 7.88 µM
  TGI: 20.4 µM
HCT-15 colon
  GI50: 13.3 µM
  TGI: 26.2 µM
HL-60(TB) leukemia
  GI50: 11.9 µM
  TGI: 26.8 µM
HS 578T breast
  GI50: 39.1 µM
  TGI: 89.8 µM
HT29 colon
  GI50: 12.1 µM
  TGI: 26.1 µM
IGROV1 ovarian
  GI50: 14.5 µM
  TGI: 29.4 µM
K-562 leukemia
  GI50: 9.83 µM
  TGI: 39.1 µM
KM12 colon
  GI50: 14.3 µM
  TGI: 34.6 µM
LOX IMVI melanoma
  GI50: 12.9 µM
  TGI: 26.4 µM
M14 melanoma
  GI50: 16.6 µM
  TGI: 31 µM
MALME-3M melanoma
  GI50: 26.1 µM
  TGI: 44.6 µM
MCF7 breast
  GI50: 6.73 µM
  TGI: 24 µM
MDA-MB-231 breast
  GI50: 16.3 µM
  TGI: 37.4 µM
MDA-MB-435
  GI50: 11.8 µM
  TGI: 25.9 µM
MOLT-4 leukemia
  GI50: 6.23 µM
  TGI: 21.8 µM
NCI-H226 lung
  GI50: 21 µM
  TGI: 38.1 µM
NCI-H23 lung
  GI50: 13.6 µM
  TGI: 28.3 µM
NCI-H460 lung
  GI50: 12.9 µM
  TGI: 27.2 µM
NCI-H522 lung
  GI50: 13.5 µM
  TGI: 34.4 µM
NCI/ADR-RES ovarian
  GI50: 12.9 µM
  TGI: 32.4 µM
OVCAR-3 ovarian
  GI50: 13.2 µM
  TGI: 26.8 µM
OVCAR-4 ovarian
  GI50: 14.4 µM
  TGI: 35.6 µM
OVCAR-5 ovarian
  GI50: 17 µM
  TGI: 32.4 µM
OVCAR-8 ovarian
  GI50: 25.1 µM
  TGI: > 100 µM
PC-3 prostate
  GI50: 12 µM
  TGI: 25.2 µM
RPMI-8226 leukemia
  GI50: 5.02 µM
  TGI: 24 µM
SF-268 CNS
  GI50: 13.9 µM
  TGI: 31.5 µM
SF-295 CNS
  GI50: 16.8 µM
  TGI: 31.8 µM
SF-539 CNS
  GI50: 19.4 µM
  TGI: 34.5 µM
SK-MEL-2 melanoma
  GI50: 20.1 µM
  TGI: 47.1 µM
SK-MEL-28 melanoma
  GI50: 18.1 µM
  TGI: 34.9 µM
SK-MEL-5 melanoma
  GI50: 11.6 µM
  TGI: 23.8 µM
SK-OV-3 ovarian
  GI50: 22.3 µM
  TGI: 40.9 µM
SN12C renal
  GI50: 13.2 µM
  TGI: 25.9 µM
SNB-19 CNS
  GI50: 14.3 µM
  TGI: 28.1 µM
SNB-75 CNS
  GI50: 25 µM
  TGI: 49.6 µM
SR leukemia
  GI50: 5.68 µM
  TGI: 31.4 µM
SW-620 colon
  GI50: 16.1 µM
  TGI: 32.9 µM
T-47D breast
  GI50: 11.4 µM
  TGI: 81.4 µM
TK-10 renal
  GI50: 23.3 µM
  TGI: 50.6 µM
U251 CNS
  GI50: 12.4 µM
  TGI: 24.9 µM
UACC-257 melanoma
  GI50: 21.7 µM
  TGI: 52.3 µM
UACC-62 melanoma
  GI50: 12.5 µM
  TGI: 25.4 µM
UO-31 renal
  GI50: 11.7 µM
  TGI: 27.5 µM
